From patent publication US11986463B2, “Combination therapy for the treatment of gastrointestinal stromal tumor” (Deciphera Pharmaceuticals, LLC, priority 2018, dated 2024)
Like-named read-outs stand apart in the source and are kept apart here.

What was measured:
[1] = tested on: GIST-T1/T670I imatinib resistant cells; assay: Colony outgrowth assay, GIST-T1/T670I; format: cell-based
Description: (§1) The outgrown cell colonies were stained with crystal violet and counted.

[2] = tested on: Ba/F3 cells transformed with oncogenic KIT V560D mutant; conditions: 100 nM, 250 nM or 500 nM imatinib single agent
Method: A saturation mutagenesis study was performed in Ba/F3 cells transformed with oncogenic KIT V560D mutant. DNA nicking was induced by N-ethyl-N-nitrosourea (ENU) for 18 hours to generate additional mutations in the KIT gene or other genes in a random fashion. Assays were conducted in 6 well plates with 100 cells seeded per well. […] These cells were subjected to PCR and sequencing of the KIT gene to determine the presence of a resistant secondary mutation induced by the ENU treatment.

[3] = tested on: GIST-T1 (57 bp exon 11 deletion) imatinib sensitive cells; assay: Colony outgrowth assay, GIST-T1; format: cell-based
Description: as §1

[4] = tested on: GIST-T1/D816E imatinib resistant cells; assay: Colony outgrowth assay, GIST-T1/D816E; format: cell-based
Description: as §1

[5] = tested on: GIST T1 xenograft; assay: GIST T1 xenograft model; format: in vivo, mice; conditions: for mice with partial tumor regression during the dosing period / mice with complete tumor regression during the dosing period: days 10-27; for mice remaining in partial tumor regression at the end of study: end of study day 66
Method: The GIST T1 xenograft model was performed in compliance with all the laws, regulations and guidelines of the National Institutes of Health (NIH) and with the approval of the Animal Care and Use Committee of MI Bioresearch (Ann Arbor, MI), an AAALAC accredited facility. All mice had food and water ad libitum. […] Female Envigo nude mice (HsdCrl:Athymic Nude-NU-Foxn1nu; 6-7 weeks old) were inoculated subcutaneously just below the right high axilla with five million cells in Dulbecco's Phosphate Buffered Saline mixed with an equal volume of Matrigel, using a 27 gauge needle and syringe. When tumor burdens reached 117 mm^3 on average on day 10, mice were randomly assigned into groups such that the mean tumor burden for all groups was within 10% of the overall mean tumor burden for the study population. […] On Day 27, all animals were placed on control diet to monitor tumor regrowth. Tumor volume and body weight were measured thrice weekly. Tumor burden (mg) was estimated from caliper measurements by the formula: tumor burden (mg=mm^3)=(length×width^2)/2.

[6] = target: T1, human efflux transporter BCRP (Homo sapiens, UniProt Q9UNQ0); assay: BCRP vesicular transport inhibition assay; format: biochemical
T1 construct: inside-out membrane vesicles
T1 sequence (Q9UNQ0 1-655): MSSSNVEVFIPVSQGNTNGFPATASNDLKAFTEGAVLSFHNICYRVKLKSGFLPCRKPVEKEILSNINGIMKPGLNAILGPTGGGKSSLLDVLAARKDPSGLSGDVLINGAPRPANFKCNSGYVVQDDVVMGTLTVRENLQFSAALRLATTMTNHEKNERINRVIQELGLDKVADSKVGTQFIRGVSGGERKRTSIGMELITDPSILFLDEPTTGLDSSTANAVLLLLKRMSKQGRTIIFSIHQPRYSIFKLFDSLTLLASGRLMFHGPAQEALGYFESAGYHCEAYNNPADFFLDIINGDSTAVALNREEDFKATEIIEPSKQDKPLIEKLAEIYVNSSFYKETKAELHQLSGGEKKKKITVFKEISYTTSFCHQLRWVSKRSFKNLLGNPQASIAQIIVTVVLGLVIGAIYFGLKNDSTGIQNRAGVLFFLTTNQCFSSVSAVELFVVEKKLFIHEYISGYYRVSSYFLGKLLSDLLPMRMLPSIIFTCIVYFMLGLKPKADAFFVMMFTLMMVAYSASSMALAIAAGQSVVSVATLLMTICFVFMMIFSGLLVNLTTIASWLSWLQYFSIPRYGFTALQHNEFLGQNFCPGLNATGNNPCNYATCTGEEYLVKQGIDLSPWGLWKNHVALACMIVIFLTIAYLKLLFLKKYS
Method: (§2) The IC50 value was estimated to be approximately 0.04 μM.

[7] = target: T2, BCRP (Homo sapiens, UniProt Q9UNQ0); assay: BCRP vesicular transport inhibition assay; format: biochemical; conditions: human; 0.04 μM, lowest concentration tested; read-out: inhibition of the transport of the probe substrate of BCRP
T2 construct: inside-out membrane vesicles
T2 sequence (Q9UNQ0 1-655): T1 sequence (Q9UNQ0 1-655)
Method: as §2

[8] = low dose Compound A approximately 25 mg/kg/day in diet, trametinib 0.5 mg/kg BID where combined

In the case of `Cc1ccc(NC(=O)c2ccc(CN3CCN(C)CC3)cc2)cc1Nc1nccc(-c2cccnc2)n1` [imatinib, reference compound], the “reduction of GIST-T1/T670I colonies” value ([1]; imatinib 500 nM single agent (FIG. 10C)) is reported as “does not show any reduction of colonies” and the “outgrowth of resistant secondary KIT mutations” value [2] is reported as “T670I, K807E, and/or D816V imatinib-resistant secondary KIT mutants were identified”.
For `CCn1c(=O)c(-c2cc(NC(=O)Nc3ccccc3)c(F)cc2Br)cc2cnc(N)cc21` [Compound B, 1-(5-(7-amino-1-ethyl-2-oxo-1,2-dihydro-1,6-naphthyridin-3-yl)-4-bromo-2-fluorophenyl)-3-phenylurea], the “reduction of GIST T1 colony outgrowth compared to vehicle control” value ([3]; Compound B single agent (FIG. 9A)) was 42-54%, the “GIST T1 colony outgrowth” value ([3]; Compound B single agent (FIG. 13A)) was 42-54 % of vehicle control and the “GIST T1 colony outgrowth” value ([3]; each concentration of Compound B as a single agent (FIG. 11A)) was 27-31 % of vehicle control. For the same compound, the “GIST T1/D816E colony outgrowth” value ([4]; Compound B 50 nM, 100 nM or 250 nM single agent (FIG. 9B)) was 59-84 % of vehicle control, the “GIST T1/D816E colony outgrowth” value ([4]; Compound B 50 nM, 100 nM or 250 nM single agent (FIG. 15)) was 52-95 % of vehicle control and the “GIST T1/D816E colony outgrowth” value ([4]; Compound B 100 nM or 250 nM single agent (FIG. 13B)) was 58-84 % of vehicle control. For the same compound, the “GIST T1/D816E colony outgrowth” value ([4]; Compound B 100 nM or 250 nM single agents (FIG. 11B)) was 74-83 % of vehicle control, the “GIST T1/T670I colony outgrowth” value ([1]; Compound B 50 nM, 100 nM, 250 nM single agents (FIG. 9C)) was 75-78 % of vehicle control and the “GIST T1/T670I colony outgrowth” value ([1]; Compound B 100 nM or 250 nM single (FIG. 13C)) was 75-78 % of vehicle control. The “GIST T1/T670I colony outgrowth” value ([1]; Compound B 100 nM or 250 nM single agent (FIG. 11C)) was 72-78 % of vehicle control.
In the case of `CCn1c(=O)c(-c2cc(NC(=O)Nc3ccccc3)c(F)cc2Br)cc2cnc(NC)cc21` [Compound A, 1-[4-bromo-5-[1-ethyl-7-(methylamino)-2-oxo-1,2-dihydro-1,6-naphthyridin-3-yl]-2-fluorophenyl]-3-phenylurea], the “mice with partial tumor regression during the dosing period” value ([5]; high dose Compound A approximately 100 mg/kg/day in diet) is reported as 4/10, the “mice with complete tumor regression during the dosing period” value ([5]; high dose Compound A approximately 100 mg/kg/day in diet, trametinib 0.5 mg/kg BID where combined) is reported as 6/10 and the “mice remaining in partial tumor regression at the end of study” value ([5]; high dose Compound A approximately 100 mg/kg/day, trametinib 0.5 mg/kg BID where combined) is reported as 1/10. The “mice with complete tumor regression during the dosing period” value [5, 8] was 2/10, the “mice with partial tumor regression during the dosing period” value [5, 8] was 6/10 and the “mice remaining in partial tumor regression at the end of study” value ([5]; low dose Compound A approximately 25 mg/kg/day, trametinib 0.5 mg/kg BID where combined) was 2/10. The “GIST T1 colony outgrowth” value ([3]; Compound A single agents (FIG. 14A)) was 37-41 % of vehicle control, the “GIST T1/D816E colony outgrowth” value ([4]; Compound A 50 nM, 100 nM or 250 nM single agent (FIG. 14B)) was 81-93 % of vehicle control and the “GIST T1/T670I colony outgrowth” value ([1]; Compound A 100 nM or 250 nM single agents, dose dependent (FIG. 10C)) was 78-89 % of vehicle control. For the same compound, the IC50 ([6]; 7 concentrations, vesicular transport inhibition, read-out: IC50, BCRP (estimated)) was roughly 40 nM, the IC50 ([6]; read-out: IC50, BCRP efflux transporter) was 40 nM and the inhibition at 0.04 µM [7] was 44%.
